Our source for the Kb values is patent US7932269B2, “Sulfonamides as orexin antagonists” (Hoffmann-La Roche Inc., priority 2008, dated 2011).

This assay addresses T1, human orexin-2 (hOX2) receptors (Homo sapiens, UniProt O43614).
T1 construct: expressed in transfected cells
T1 sequence (O43614 1-444): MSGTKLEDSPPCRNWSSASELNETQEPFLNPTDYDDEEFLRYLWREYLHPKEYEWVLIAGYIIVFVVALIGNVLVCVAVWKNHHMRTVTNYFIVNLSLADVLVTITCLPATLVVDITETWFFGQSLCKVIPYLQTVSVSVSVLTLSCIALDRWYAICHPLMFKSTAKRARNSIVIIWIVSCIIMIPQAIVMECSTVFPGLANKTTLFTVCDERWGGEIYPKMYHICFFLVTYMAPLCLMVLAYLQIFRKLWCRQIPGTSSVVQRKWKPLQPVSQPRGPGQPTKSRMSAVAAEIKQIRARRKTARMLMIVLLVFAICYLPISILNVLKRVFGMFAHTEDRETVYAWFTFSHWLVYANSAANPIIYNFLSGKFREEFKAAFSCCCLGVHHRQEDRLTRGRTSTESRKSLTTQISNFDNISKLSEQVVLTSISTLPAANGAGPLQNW
The assay is described as follows: Intracellular Ca2+ mobilization assay (FLIPR), orexin-A as agonist. The class given is cell-based. The settings on record: CHO(dHFr-) cells stably expressing hOX2; antagonist applied 25 min before EC80 of orexin-A; Kb=IC50/(1+[A]/EC50); read-out: Kb (μM) OX2R (human). The protocol:
Intracellular Ca^2+ Mobilization Assay
The Chinese Hamster Ovary (dHFr-) mutant cell line stably expressing human orexin-1 (hOX1) or human orexin-2 (hOX2) receptors were maintained in Dulbecco's Modified Eagle Medium (1X) with GlutaMax™ 1, 4500 mg/L D-Glucose and Sodium Pyruvate (Catalog No. 31966-021, Invitrogen, Carlsbad, Calif.), 5% dialyzed fetal calf serum (Catalog No. 26400-044), 100 μg/ml penicillin and 100 μg/ml streptomycin. The cells were seeded at 5×10^4 cells/well in the poly-D-lysine treated, 96-well, black/clear-bottomed plates (Catalog No. BD356640, BD Biosciences, Palo Alto, Calif.). 24 h later, the cells were loaded for 1 hr at 37° C. with 4 μM Flou-4 acetoxymethyl ester (Catalog No. F-14202, Molecular Probes, Eugene, Oreg.) in FLIPR buffer (1×HBSS, 20 mM HEPES, 2.5 mM Probenecid). Hanks' Balanced Salt Solution (HBSS) (10X) (catalog No. 14065-049) and HEPES (1M) (catalog No. 15630-056) were purchased from Invitrogen, Carlsbad, Calif. Probenecid (250 mM) (catalog No. P8761) was from Sigma, Buchs, Switzerland. The cells were washed five times with FLIPR buffer to remove excess dye and intracellular calcium mobilization, [Ca^2+] were measured using a Fluorometric Imaging Plate Reader (FLIPR-96, Molecular Devices, Menlo Park, Calif.) as described previously (Malherbe et al., Mol. Pharmacol., 64, 823-832, 2003). Orexin A (catalog No.1455, Toris Cookson Ltd, Bristol, UK) was used as agonist. Orexin A ([…] stock solution in DMSO) was diluted in FLIPR buffer +0.1% BSA. The EC50 and EC80 values of orexin-A were measured daily from standard agonist concentration-response curves in CHO(dHFr-)-OX1R and —OX2R cell lines. All compounds were dissolved in 100% DMSO. Inhibition curves were determined by addition of 11 concentrations (0.0001-10 μM) of inhibitory compounds and using EC80 value of orexin-A as agonist (a concentration which gave 80% of max agonist response, determined daily). The antagonists were applied 25 min (incubation at 37° C.) before the application of the agonist. Responses were measured as peak increase in fluorescence minus basal, normalized to the maximal stimulatory effect induced by EC80 value of orexin-A or orexin-B. Inhibition curves were fitted according to the Hill equation: y=100/(1+(x/1C50)^nH), where nH=slope factor using Excel-fit 4 software (Microsoft). Kb values were calculated according to the following equation Kb=IC50/(1+[A]/EC50) where A is the concentration of agonist added which is very close to agonist EC80 value, and IC50 and EC50 values were derived from the antagonist inhibition and orexin-A or B agonist curves, respectively.
On the technique in general: Calcium flux is commonly read through the fluorescence of an indicator in the cells.

As a reminder, the Kb is the equilibrium dissociation constant of an antagonist, usually derived from a functional assay. Take `COc1cccc(S(=O)(=O)N(CC(=O)N2CCCC2c2ccccc2)c2ccc(Cl)cc2)c1` (centres unmarked) [Example 1, N-(4-Chloro-phenyl)-3-methoxy-N-[2-oxo-2-(2-phenyl-pyrrolidin-1-yl)-ethyl]-benzenesulfonamide]: the antagonist dissociation constant (Kb) was 0.0017 µM. The result for `COc1ccc(S(=O)(=O)N(CC(=O)N2CCCC2c2ccccc2)c2ccc(Cl)cc2)cc1` (centres unmarked) [Example 2, N-(4-Chloro-phenyl)-4-methoxy-N-[2-oxo-2-(2-phenyl-pyrrolidin-1-yl)-ethyl]-benzenesulfonamide] reads 0.0049 µM. The result for `Cc1ccccc1S(=O)(=O)N(CC(=O)N1CCCC1c1ccccc1)c1ccc(Cl)cc1` (centres unmarked) [Example 3, N-(4-Chloro-phenyl)-2-methyl-N-[2-oxo-2-(2-phenyl-pyrrolidin-1-yl)-ethyl]-benzenesulfonamide] reads 0.0005 µM. For `O=C(CN(c1ccc(Cl)cc1)S(=O)(=O)c1cccc(Cl)c1)N1CCCC1c1ccccc1` (centres unmarked) [Example 4, 3-Chloro-N-(4-chloro-phenyl)-N-[2-oxo-2-(2-phenyl-pyrrolidin-1-yl)-ethyl]-benzenesulfonamide], the Kb was 0.0011 µM. `Cc1ccc(S(=O)(=O)N(CC(=O)N2CCCC2c2ccccc2)c2ccc(Cl)cc2)cc1` (centres unmarked) [Example 5, N-(4-Chloro-phenyl)-4-methyl-N-[2-oxo-2-(2-phenyl-pyrrolidin-1-yl)-ethyl]-benzenesulfonamide]: the Kb is 0.0019 µM.

As to `COc1ccc(S(=O)(=O)N(CC(=O)N2CCCC2c2ccccc2)c2ccc(Cl)cc2)cc1` (centres unmarked) [Example 6, N-(4-Chloro-phenyl)-4-methoxy-N-[2-oxo-2-(2-phenyl-pyrrolidin-1-yl)-ethyl]-benzenesulfonamide], the Kb stood at 0.0042 µM. Regarding `O=C(CN(c1ccc(Cl)cc1)S(=O)(=O)c1ccccc1Cl)N1CCCC1c1ccc(F)cc1` (centres unmarked) [Example 7, 2-Chloro-N-(4-chloro-phenyl)-N-{2-[2-(4-fluoro-phenyl)-pyrrolidin-1-yl]-2-oxo-ethyl}-benzenesulfonamide], the Kb turned out to be 0.0007 µM.

`O=C(CN(c1ccc(Cl)cc1)S(=O)(=O)c1ccc(Cl)cc1)N1CCCC1c1ccccc1` (centres unmarked) [Example 8, 4-Chloro-N-(4-chloro-phenyl)-N-[2-oxo-2-(2-phenyl-pyrrolidin-1-yl)-ethyl]-benzenesulfonamide]: the Kb worked out at 0.0022 µM. With `Cc1cccc(S(=O)(=O)N(CC(=O)N2CCCC2c2ccccc2)c2ccc(Cl)cc2)c1` (centres unmarked) [Example 11, N-(4-Chloro-phenyl)-3-methyl-N-[2-oxo-2-(2-phenyl-pyrrolidin-1-yl)-ethyl]-benzenesulfonamide] the figure was 0.0005 µM; with `O=C(CN(c1ccc(Cl)cc1)S(=O)(=O)c1ccccc1Cl)N1CCCC1c1ccccc1` (centres unmarked) [Example 12, 2-Chloro-N-(4-chloro-phenyl)-N-[2-oxo-2-(2-phenyl-pyrrolidin-1-yl)-ethyl]-benzenesulfonamide], 0.0012 µM; with `O=C(CN(c1ccc(Cl)cc1)S(=O)(=O)c1ccccc1F)N1CCCC1c1ccccc1` (centres unmarked) [Example 13, N-(4-Chloro-phenyl)-2-fluoro-N-[2-oxo-2-(2-phenyl-pyrrolidin-1-yl)-ethyl]-benzenesulfonamide], 0.0025 µM. With `O=C(CN(c1ccc(Cl)cc1)S(=O)(=O)c1cccc(F)c1)N1CCCC1c1ccc(F)cc1` (centres unmarked) [Example 15, N-(4-Chloro-phenyl)-3-fluoro-N-{2-[2-(4-fluoro-phenyl)-pyrrolidin-1-yl]-2-oxo-ethyl}-benzenesulfonamide] the figure was 0.0018 µM; with `O=C(CN(c1ccc(Cl)cc1)S(=O)(=O)c1ccccc1F)N1CCCC1c1ccc(F)cc1` (centres unmarked) [Example 16, N-(4-Chloro-phenyl)-2-fluoro-N-{2-[2-(4-fluoro-phenyl)-pyrrolidin-1-yl]-2-oxo-ethyl}-benzenesulfonamide], 0.0009 µM. With `O=C(CN(c1ccc(Cl)cc1)S(=O)(=O)c1cccc(Cl)c1)N1CCCC1c1ccc(F)cc1` (centres unmarked) [Example 18, 3-Chloro-N-(4-chloro-phenyl)-N-{2-[2-(4-fluoro-phenyl)-pyrrolidin-1-yl]-2-oxo-ethyl}-benzenesulfonamide], the Kb amounted to 0.0014 µM.
